Where a name gives a salt, the structure may show the parent alone. Read-outs that look alike come from different tables or passages of the source.
Columns and labels:
[1] = system: leukotriene pathway in human whole blood (LTB4 levels); assay: Human whole blood assay (A23187-stimulated LTB4); assay type: cell-based; conditions: Homo sapiens, human whole blood diluted 1:1, A23187-stimulated; read-out: LTB4 IC50 1:1
Summary of the method: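 Compounds are pre-incubated 15 min at 37° Celsius in RPMI-diluted (1:1) heparinised whole blood before a 30 min A23187 stimulus (7 μg/mL). Plasma LTB4 is read by immunoassay kit, with IC50 calculated from a 4-parameter equation.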

human FLAP = human FLAP (Homo sapiens (Human), UniProt P20292); assay: FLAP binding assay (HTRF format)
Summary of the method: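 HTRF ratio read-out; two independent plates, samples in duplicate on each, values averaged across plates.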

[2] = read-out: FLAP Binding wild type HTRF Ki

Sequence of human FLAP (P20292 whole entry): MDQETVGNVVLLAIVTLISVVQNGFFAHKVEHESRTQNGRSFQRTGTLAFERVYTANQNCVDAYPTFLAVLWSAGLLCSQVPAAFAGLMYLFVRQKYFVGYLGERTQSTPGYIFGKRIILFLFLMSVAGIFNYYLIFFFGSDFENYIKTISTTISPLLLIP

Row | Structure (SMILES) | IC50 [1] | Ki (human FLAP; wild type FLAP, HTRF format) | Ki (human FLAP; [2])
1 | C[C@H](NC(=O)c1cc(C(F)(F)F)ccc1-c1ccc(-c2cnc(N)nc2)c(F)c1)C(F)(F)F [Example 788, 2-[4-(2-Aminopyrimidin-5-yl)-3-fluoro-phenyl]-5-(trifluoromethyl)-N-[(1S)-2,2,2-trifluoro-1-methyl-ethyl]benzamide] | 272 nM | 17.8 nM | –
2 | C[C@@H](NC(=O)c1cc(C(F)(F)F)ccc1-c1ccc(-c2cnc(N)nc2)c(F)c1)C(F)(F)F [Example 789, 2-[4-(2-Aminopyrimidin-5-yl)-3-fluoro-phenyl]-5-(trifluoromethyl)-N-[(1R)-2,2,2-trifluoro-1-methyl-ethyl]benzamide] | 939 nM | 130 nM | –
3 | C[C@H](NC(=O)c1cc(C(F)(F)F)ccc1-c1ccc(-c2cnc(N)cn2)c(F)c1)C(F)(F)F [Example 790, 2-[4-(5-Aminopyrazin-2-yl)-3-fluoro-phenyl]-5-(trifluoromethyl)-N-[(1S)-2,2,2-trifluoro-1-methyl-ethyl]benzamide] | 25.3 nM | 1.5 nM | –
4 | Nc1ncc(-c2ccc(-c3ccc(C(F)(F)F)cc3C(=O)N3CCS(=O)(=O)CC3)cc2F)cn1 [Example 793, [2-[4-(2-Aminopyrimidin-5-yl)-3-fluoro-phenyl]-5-(trifluoromethyl)phenyl]-(1,1-dioxo-1,4-thiazinan-4-yl)methanone] | 642 nM | 280 nM | –
5 | CC(C)(C)NC(=O)c1cc(C(F)(F)F)ccc1-c1ccc(-c2cnc(N)nc2)c(F)c1 [Example 794, 2-[4-(2-Aminopyrimidin-5-yl)-3-fluoro-phenyl]-N-tert-butyl-5-(trifluoromethyl)benzamide] | 3940 nM | 32.8 nM | –
6 | Nc1cnc(-c2ccc(-c3ccc(C(F)(F)F)cc3C(=O)N3CCC(O)CC3)cc2F)cn1 [Example 795, [2-[4-(5-Aminopyrazin-2-yl)-3-fluoro-phenyl]-5-(trifluoromethyl)phenyl]-(4-hydroxy-1-piperidyl)methanone] | 68.6 nM | 8.5 nM | –
7 | CC(C)(C)C(=O)Nc1ncccc1-c1ccc(-c2cnc3[nH]ccc3c2)c(F)c1 [Example 802, N-{3-[3-Fluoro-4-(1H-pyrrolo[2,3-b]pyridin-5-yl)phenyl]pyridin-2-yl}-2,2-dimethylpropanamide] | 0.994 nM | > 10000 nM | –
8 | Nc1ncc(-c2ccc(-c3cccnc3S(=O)(=O)C3CCC3)cc2F)cn1 [Example 805, 5-(4-(2-(Cyclobutylsulfonyl)pyridin-3-yl)-2-fluorophenyl)pyrimidin-2-amine hydrochloride] | 353 nM | 29.7 nM | –
9 | Nc1cnc(-c2ccc(-c3cccnc3S(=O)(=O)C3CCC3)cc2F)cn1 [Example 806, 5-(4-(2-(Cyclobutylsulfonyl)pyridin-3-yl)-2-fluorophenyl)pyrazin-2-amine hydrochloride] | 48.4 nM | 1.8 nM | –
10 | Nc1ncc(-c2ccc(-c3cccnc3S(=O)(=O)C3CCCCC3)cc2F)cn1 [Example 807, 5-(4-(2-(Cyclohexlsulfonyl)pyridin-3-yl)-2-fluorophenyl)pyrimidin-2-amine hydrochloride] | 72.2 nM | – | 5.8 nM
11 | Nc1cnc(-c2ccc(-c3cccnc3S(=O)(=O)C3CCCCC3)cc2F)cn1 [Example 808, 5-(4-(2-(Cyclohexylsulfonyl)pyridin-3-yl)-2-fluorophenyl)pyrazin-2-amine hydrochloride] | 6.37 nM | 0.4 nM | –
12 | Nc1ncc(-c2ccc(-c3cccnc3S(=O)(=O)C3CCCC3)cc2F)cn1 [Example 809, 5-(4-(2-(Cyclopentylsulfonyl)pyridin-3-yl)-2-fluorophenyl)pyrimidine-2-amine hydrochloride] | 37.7 nM | 3.8 nM | –
13 | CC(C)(C)S(=O)(=O)c1ncccc1-c1ccc(-c2cnc(N)nc2)c(F)c1 [Example 811, 5-(4-(2-(tert-Butylsulfonyl)pyridin-3-yl)-2-fluorophenyl)pyrimidin-2-amine formic acid salt] | 541 nM | – | 315 nM
14 | CC(C)(C)S(=O)(=O)c1ncccc1-c1ccc(-c2cnc(N)cn2)c(F)c1 [Example 812, 5-(4-(2-(tert-Butylsulfonyl)pyridin-3-yl)-2-fluorophenyl)pyrazin-2-amine formic acid salt] | 12 nM | – | 8.5 nM
15 | Nc1ncc(-c2ccc(-c3cccnc3S(=O)(=O)C3CC3)cc2F)cn1 [Example 828, 5-{4-[2-(Cyclopropylsulfonyl)pyridin-3-yl]-2-fluorophenyl}pyrimidin-2-amine formic acid salt] | 260 nM | – | 115 nM
16 | Nc1ncc(-c2ccc(-c3cccnc3S(=O)(=O)C3CCOCC3)cc2F)cn1 [Example 831, 5-{2-Fluoro-4-[2-(tetrahydro-2H-pyran-4-ylsulfonyl)pyridin-3-yl]phenyl}pyrimidin-2-amine formic acid salt] | 79.2 nM | – | 131 nM

More lines, main results first:

Row | IC50 [1] | Ki (human FLAP; wild type FLAP, HTRF format) | Structure (SMILES) | Ki (human FLAP; [2])
17 | 5.64 nM | 0.6 nM | Nc1cnc(-c2ccc(-c3cccnc3S(=O)(=O)C3CCCC3)cc2F)cn1 [Example 810, 5-(4-(2-(Cyclopentylsulfonyl)pyridin-3-yl)-2-fluorophenyl)pyrazin-2-amine hydrochloride] | –
18 | 128 nM | 256 nM | CC(=O)N1CCC(S(=O)(=O)c2ncccc2-c2ccc(-c3cnc(N)nc3)c(F)c2)CC1 [Example 815] | –
19 | 46 nM | 21.8 nM | CC(=O)N1CCC(S(=O)(=O)c2ncccc2-c2ccc(-c3cnc(N)cn3)c(F)c2)CC1 [Example 816, 1-((3-(4-(2-Aminopyrazin-5-yl)-3-fluorophenyl)pyridine-2-yl)sulfonyl)piperidin-1-yl)ethanone hydrogen chloride salt] | –
20 | 51.6 nM | 27.2 nM | COCCCS(=O)(=O)c1ncccc1-c1ccc(-c2cnc(N)cn2)c(F)c1 [Example 818, 5-(2-Fluoro-4-(2-((3-methoxypropyl)sulfonyl)pyridine-3-yl)phenyl)pyrazin-2-amine hydrogen chloride salt] | –
21 | 47.5 nM | 40.5 nM | Nc1ncc(-c2ccc(-c3cccnc3S(=O)(=O)C3CCS(=O)(=O)CC3)cc2F)cn1 [Example 819, 4-((3-(4-(2-aminopyrimidin-5-yl)-3-fluorophenyl)pyridine-2-yl)sulfonyl)tetrahydro-2H-thiopyran 1,1-dioxide] | –
22 | 41.6 nM | 3.3 nM | Nc1cnc(-c2ccc(-c3cccnc3S(=O)(=O)C3CCS(=O)(=O)CC3)cc2F)cn1 [Example 820, 4-((3-(4-(2-Aminopyrazin-5-yl)-3-fluorophenyl)pyridine-2-yl)sulfonyl)tetrahydro-2H-thiopyran 1,1-dioxide] | –
23 | 99.1 nM | 280 nM | Nc1cnc(-c2ccc(-c3cccnc3S(=O)(=O)CCN3CCOCC3)cc2F)cn1 [Example 822, 5-(2-Fluoro-4-(2-((2-morpholinoethyl)sulfonyl)pyridine-3-yl)phenyl)pyrazin-2-amine] | –
24 | 95.1 nM | 192 nM | Nc1ncc(-c2ccc(-c3cccnc3S(=O)(=O)CC3CCOCC3)cc2F)cn1 [Example 823, 5-(2-Fluoro-4-(2-(((tetrahydro-2H-pyran-4-yl)methyl)sulfonyl)pyridine-3-yl)pyrimidin-2-amine formic acid salt] | –
25 | 18 nM | 10.3 nM | Nc1cnc(-c2ccc(-c3cccnc3S(=O)(=O)CC3CCOCC3)cc2F)cn1 [Example 824, 5-(2-Fluoro-4-(2-(((tetrahydro-2H-pyran-4-yl)methyl)sulfonyl)pyridine-3-yl)pyrazin-2-amine formic acid salt] | –
26 | 122 nM | 273 nM | CC(C)S(=O)(=O)c1ncccc1-c1ccc(-c2cnc(N)nc2)c(F)c1 [Example 825, 5-(2-Fluoro-4-{2-[(1-methylethyl)sulfonyl]pyridin-3-yl}phenyl)pyrimidin-2-amine] | –
27 | 19.9 nM | 0.7 nM | CC(C)S(=O)(=O)c1ncccc1-c1ccc(-c2cnc3[nH]ccc3c2)c(F)c1 [Example 826, 5-(2-Fluoro-4-(2-(isopropylsulfonyl)pyridine-3-yl)phenyl)-1H-pyrrolo[2,3-b]pyridine] | –
28 | 5.96 nM | 3.2 nM | Nc1cnc(-c2ccc(-c3cccnc3S(=O)(=O)C3CC3)cc2F)cn1 [Example 829, 5-{4-[2-(Cyclopropylsulfonyl)pyridin-3-yl]-2-fluorophenyl}pyrazin-2-amine formic acid salt] | –
29 | 5.55 nM | 2.9 nM | Nc1cnc(-c2ccc(-c3cccnc3S(=O)(=O)C3CCOCC3)cc2F)cn1 [Example 830, 5-{2-Fluoro-4-[2-(tetrahydro-2H-pyran-4-ylsulfonyl)pyridin-3-yl]phenyl}pyrazin-2-amine hydrochloride] | –
30 | 1090 nM | 48.9 nM | COc1c(-c2ccccc2)ccc(-c2cnc(N)cn2)c1F [Example 834, 5-(3-Fluoro-2-methoxybiphenyl-4-yl)pyrazin-2-amine] | –
31 | 417 nM | ~354 nM | COc1c(-c2ccccc2S(C)(=O)=O)ccc(-c2cnc(N)cn2)c1F [Example 835, 5-[3-Fluoro-2-methoxy-2′-(methylsulfonyl)biphenyl-4-yl]pyrazin-2-amine] | –
32 | 595 nM | 25.5 nM | COc1c(-c2ccccc2S(=O)(=O)NC(C)(C)C)ccc(-c2cnc(N)cn2)c1F [Example 836, 4′-(5-Aminopyrazin-2-yl)-N-tert-butyl-3′-fluoro-2′-methoxybiphenyl-2-sulfonamide] | –
33 | 350 nM | 28.6 nM | Nc1cnc(-c2ccc(-c3ccccc3-c3cnccn3)cc2F)cn1 [Example 838, 5-(3-Fluoro-2′-(pyrazin-2-yl)-[1,1′-biphenyl]-4-yl)pyrazin-2-amine] | –
34 | 2790 nM | 830 nM | Nc1ncc(-c2ccc(-c3ccccc3-c3cnccn3)cc2F)cn1 [Example 839, 5-(3-Fluoro-2′-pyrazin-2-ylbiphenyl-4-yl)pyrimidin-2-amine] | –
